Results from patent US12274706B2 (MEDAC GESELLSCHAFT FUER KLINISCHE SPEZIALPRAEPARATE MBH, priority 2017, dated 2025).
In brackets after ≈: the same amount, converted by molar mass. Several values for one entry are separate records, joined by “and”; a condition that tells them apart may be missing. Equal values may be shown once. Read-outs that look alike come from different tables or passages of the source.

Columns and labels:
Water vapor uptake (GVS) = format: physicochemical
[1] = Solubility of sulfasalazine, Form A meglumine salt and pharmaceutical compositions (HPLC); format: physicochemical
Protocol: The mobile phase consists of mobile phase (A): 1.13 g sodium dihydrogen phosphate and 2.5 g sodium acetate are dissolved in 1000 mL purified water. The pH is afterwards adjusted with acetic acid (100%) to 4.8. and mobile phase (B): 1 part mobile phase A is mixed with 4 parts of methanol for chromatography. The flow rate was 1.0 mL/min, injection volume 5 μL and detection wavelengths 320 nm (HP DAD series 1100). Run time is 10 min. Quantitation was performed using external standard methodology. The assay method has been validated with respect to selectivity, repeatability and linearity. Samples are prepared with dilute ammonia R3 PhEur.
The saturated solutions were filtrated using centrifuge filters (Nylon, […]) and the clear supernatants were respectively injected either directly or after dilution with dilute ammonia R3 PhEur.
The resulting solution is further diluted with phosphate buffer (pH 6.8) to 1% v/v solution prior. The resulting phosphate buffer solution is diluted with dilute ammonia R3 prior to injection.

[2] = cited from earlier work
[3] = cited from earlier work; remark: listed apart in the source
[4] = tested on: binding of TNF-alpha to its receptor; conditions: 125I-TNF-alpha displacement; cited from earlier work
in vitro = conditions: human, Caco-2
physchem = conditions: de-ionized water, 24 °C

## CCNCC.O=C(O)c1cc(N=Nc2ccc(S(=O)(=O)Nc3ccccn3)cc2)ccc1O [Form A diethylamine salt, diethylamine 2-hydroxy-5-[2-[4-[(2-pyridinylamino)sulfonyl]phenyl]diazenyl]-benzoate, crystal Form A]
Water vapor uptake (GVS)
  water vapor uptake (GVS; % w/w) at 30% RH: 0.3 % w/w
  water vapor uptake (GVS; % w/w) at 80% RH: 0.5 % w/w

## CNCC(O)C(O)C(O)C(O)CO.O=C(O)c1cc(N=Nc2ccc(S(=O)(=O)Nc3ccccn3)cc2)ccc1O [Form A meglumine salt, D(−)-N-methylglucamine 2-hydroxy-5-[2-[4-[(2-pyridinylamino)sulfonyl]phenyl]diazenyl]-benzoate, crystal Form A]
[1]; FaSSIF-V2 medium, room temperature (20-25° C.), saturated solution
  Solubility (mg/mL) FaSSIF-V2: 15.3 mg/mL
[1]; water, diluted in phosphate Buffer pH 6.8
  Solubility (mg/mL) Water: 60.3 mg/mL
[1]; water, room temperature
  Solubility (mg/mL) Water: 104.8 mg/mL
Water vapor uptake (GVS); listed as 4.1
  water vapor uptake (GVS; % w/w) at 30% RH: < 0.4 % w/w
  water vapor uptake (GVS; % w/w) at 80% RH: < 0.9 % w/w
Water vapor uptake (GVS); listed as 4.2
  water vapor uptake (GVS; % w/w) at 30% RH: 0.4 % w/w
Water vapor uptake (GVS)
  water vapor uptake (GVS; % w/w) at 80% RH: 1.1 % w/w
other
  solubility in de-ionized water at 24° C. and pH 6.6: > 54 mg/mL

## C1CNCCN1.O=C(O)c1cc(N=Nc2ccc(S(=O)(=O)Nc3ccccn3)cc2)ccc1O [Form A piperazine salt, piperazine 2-hydroxy-5-[2-[4-[(2-pyridinylamino)sulfonyl]phenyl]diazenyl]-benzoate, crystal Form A]
Water vapor uptake (GVS)
  water vapor uptake (GVS; % w/w) at 30% RH: 0.4 % w/w
  water vapor uptake (GVS; % w/w) at 80% RH: 0.9 % w/w

## Nc1ccc(S(=O)(=O)Nc2ccccn2)cc1 [sulfapyridine]
[2]; metabolite formed from non-absorbed sulfasalazine by gut flora
  systemic bioavailability: about 60%

## O=C(O)c1cc(N=Nc2ccc(S(=O)(=O)Nc3ccccn3)cc2)ccc1O [sulfasalazine, 2-hydroxy-5-[2-[4-[(2-pyridinylamino)sulfonyl]phenyl]diazenyl]-benzoic acid]
[1]; pH 5.9, thermodynamic from solid, water, room temperature, read-out: Solubility (mg/mL) Water
  solubility at 24 h: 0.06 mg/mL
[1]; pH 6.3, thermodynamic from solid, FaSSIF-V2 medium, room temperature (20-25° C.), saturated solution, read-out: Solubility (mg/mL) FaSSIF-V2
  solubility at 24 h: 0.78 mg/mL
[3]; 24° C., literature value
  solubility in de-ionized water at 24° C.: 30 µg/mL and 31 µg/mL
[3]; USP classification
  solubility class according to United States Pharmacopoeia (practically insoluble): < 100 µg/mL
[3]; water
  solubility in water: less than 5 mg/100 ml
[2]; intravenously administered
  half-life: approximately 7.6±3.6 hours
[2]; man, oral
  median peak concentration (time): 6 h
[4]
  binding of TNF-alpha to its receptor: inhibits
In vitro
  Papp A→B at 180 min, 200 μg/mL: 1.16 ×10⁻⁶ cm/s
  Papp A→B at 180 min, 2000 μg/mL: 0.81 ×10⁻⁶ cm/s
  Papp B→A at 180 min, 200 μg/mL: 4.76 ×10⁻⁶ cm/s
  Papp B→A at 180 min, 2000 μg/mL: 2.79 ×10⁻⁶ cm/s
physchem
  solubility: 60 µg/mL (≈ 151 µM)
